The record followed here is US10570129B2 (Zoetis Services LLC, priority 2015, dated 2020).

For one experiment, the system named is D. immitis microfilariae. The experiment is described as follows: Dirofilaria immitis, microfilariae (DiMF) in vitro motility assay. As to conditions: for minimal effective concentration: Dirofilaria immitis, 72 h, read-out: DiMF minimally effective dose (MEC). The experiment is classed as cell-based.
The subject of a further experiment is Haemonchus contortus L3. The experiment in a line: microbe, parasite or virus in culture. Type of experiment: cell-based. As to conditions: for minimal effective concentration: Haemonchus contortus, 96 h, read-out: HcL3 Minimal Effective Concentration (MEC).

For the molecule `N#Cc1ccc2c3c(n(C(=O)NCc4ccnc(Cl)c4)c2c1)CCN(C/C=C/c1cccc(Cl)c1F)C3` [Example 31, (E)-2-(3-(3-chloro-2-fluorophenyl)allyl)-N-((2-chloropyridin-4-yl)methyl)-7-cyano-1,2,3,4-tetrahydro-5H-pyrido[4,3-b]indole-5-carboxamide], the minimal effective concentration is more than 100 µM in the experiment with D. immitis microfilariae and 1 µM in the experiment with Haemonchus contortus L3.
In the same order, the values of `N#Cc1ccc2c3c(n(C(=O)NCc4ccnc(C5CC5)c4)c2c1)CCN(C/C=C/c1ccc(Cl)c(F)c1)C3` [Example 515, (E)-2-(3-(4-chloro-3-fluorophenyl)allyl)-7-cyano-N-((2-cyclopropylpyridin-4-yl)methyl)-1,2,3,4-tetrahydro-5H-pyrido[4,3-b]indole-5-carboxamide] are 13.5 µM and 1.8 µM.
In the same order, the values of `N#Cc1ccc2c3c(n(C(=O)NCc4ccnc(F)c4)c2c1)CCN(C/C=C/c1cc(F)c(Cl)c(F)c1)C3` [Example 50, (E)-2-(3-(4-chloro-3,5-difluorophenyl)allyl)-7-cyano-N-((2-fluoropyridin-4-yl)methyl)-1,2,3,4-tetrahydro-5H-pyrido[4,3-b]indole-5-carboxamide] are 10 µM and 1.8 µM.
Regarding `O=C(NCc1ccnc(Cl)c1)n1c2c(c3ccc(OC(F)(F)F)cc31)CN(C/C=C/c1ccc(OC(F)(F)F)cc1)CC2` [Example 360, (E)-N-((2-chloropyridin-4-yl)methyl)-7-(trifluoromethoxy)-2-(3-(4-(trifluoro-methoxy)phenyl)allyl)-1,2,3,4-tetrahydro-5H-pyrido[4,3-b]indole-5-carboxamide], the minimal effective concentration stood at 13.6 µM with D. immitis microfilariae and 7.7 µM with Haemonchus contortus L3.
In the same order, the values of `O=C(NCc1ccnc(Cl)c1)n1c2c(c3cc(Br)c(Br)cc31)CN(C/C=C/c1ccc(Cl)cc1)CC2` [Example 198, (E)-7,8-dibromo-2-(3-(4-chlorophenyl)allyl)-N-((2-chloropyridin-4-yl)methyl)-1,2,3,4-tetrahydro-5H-pyrido[4,3-b]indole-5-carboxamide] are 5.7 µM and 1 µM.
`O=C(NCc1ccnc(F)c1)n1c2c(c3ccc(OC(F)(F)F)cc31)CN(C/C=C/c1ccc(Cl)cc1F)CC2` [Example 371, (E)-2-(3-(4-chloro-2-fluorophenyl)allyl)-N-((2-fluoropyridin-4-yl)methyl)-7-(trifluoromethoxy)-1,2,3,4-tetrahydro-5H-pyrido[4,3-b]indole-5-carboxamide]: the values for the minimal effective concentration in the experiment with D. immitis microfilariae and with Haemonchus contortus L3 were 24.5 µM and 1.3 µM, respectively.
With `O=C(NCc1ccnc(Cl)c1)n1c2c(c3cc(C(F)(F)F)ccc31)CN(C/C=C/c1ccc(Cl)cc1)CC2` [Example 332, (E)-2-(3-(4-chlorophenyl)allyl)-N-((2-chloropyridin-4-yl)methyl)-8-(trifluoromethyl)-1,2,3,4-tetrahydro-5H-pyrido[4,3-b]indole-5-carboxamide], the minimal effective concentration is 13.5 µM in the experiment on D. immitis microfilariae and 1 µM in the experiment with Haemonchus contortus L3.
In the same order, the values of `O=C(NCc1ccnc(Cl)c1)n1c2c(c3cc(Br)ccc31)CN(C/C=C/c1ccc(Cl)c(Cl)c1)CC2` [Example 186, (E)-8-bromo-N-((2-chloropyridin-4-yl)methyl)-2-(3-(3,4-dichlorophenyl)allyl)-1,2,3,4-tetrahydro-5H-pyrido[4,3-b]indole-5-carboxamide] are more than 100 µM and 1 µM.
In the same order, the values of `N#Cc1ccc(/C=C/CN2CCc3c(c4cc(Br)ccc4n3C(=O)NCc3ccnc(F)c3)C2)cc1F` [Example 189, (E)-8-bromo-2-(3-(4-cyano-3-fluorophenyl)allyl)-N-((2-fluoropyridin-4-yl)methyl)-1,2,3,4-tetrahydro-5H-pyrido[4,3-b]indole-5-carboxamide] are 10.4 µM and 0.3 µM.
In the same order, the values of `O=C(NCc1ccnc(Cl)c1)n1c2c(c3cc(Br)ccc31)CN(C/C=C/c1ccc(Cl)c(F)c1)CC2` [Example 179, (E)-8-bromo-2-(3-(4-chloro-3-fluorophenyl)allyl)-N-((2-chloropyridin-4-yl)methyl)-1,2,3,4-tetrahydro-5H-pyrido[4,3-b]indole-5-carboxamide] are 75.8 µM and 0.5 µM.
For `O=C(NCc1ccnc(Cl)c1)n1c2c(c3cc(F)c(OC(F)(F)F)cc31)CN(C/C=C/c1ccc(Cl)cc1)CC2` [Example 469, (E)-2-(3-(4-chlorophenyl)allyl)-N-((2-chloropyridin-4-yl)methyl)-8-fluoro-7-(trifluoromethoxy)-1,2,3,4-tetrahydro-5H-pyrido[4,3-b]indole-5-carboxamide], the results for the minimal effective concentration with D. immitis microfilariae and in the experiment with Haemonchus contortus L3 were more than 100 µM and 1 µM, respectively.
In the same order, the values of `N#Cc1cc2c3c(n(C(=O)NCc4ccnc(Cl)c4)c2cc1Cl)CCN(C/C=C/c1ccc(Cl)cc1)C3` [Example 177, (E)-7-chloro-2-(3-(4-chlorophenyl)allyl)-N-((2-chloropyridin-4-yl)methyl)-8-cyano-1,2,3,4-tetrahydro-5H-pyrido[4,3-b]indole-5-carboxamide] are 5.7 µM and 0.3 µM.
On to `O=C(NCc1ccnc(Cl)c1)n1c2c(c3ccc(C(F)(F)F)cc31)CN(C/C=C/c1ccc(C(F)(F)F)cc1)CC2` [Example 425, (E)-N-((2-chloropyridin-4-yl)methyl)-7-(trifluoromethyl)-2-(3-(4-(trifluoro-methyl)phenyl)allyl)-1,2,3,4-tetrahydro-5H-pyrido[4,3-b]indole-5-carboxamide], for which the minimal effective concentration in the experiment with D. immitis microfilariae was 15.8 µM; with Haemonchus contortus L3, more than 100 µM.
In the same order, the values of `N#Cc1ccc2c(c1)c1c(n2C(=O)NCc2ccnc(O)c2)CCN(C/C=C/c2cc(F)c(Cl)c(F)c2)C1` [Example 450, (E)-2-(3-(4-chloro-3,5-difluorophenyl)allyl)-8-cyano-N-((2-hydroxypyridin-4-yl)methyl)-1,2,3,4-tetrahydro-5H-pyrido[4,3-b]indole-5-carboxamide] are 100 µM and 0.5 µM.
In the same order, the values of `O=C(NCc1ccnc(Cl)c1)n1c2c(c3ccc(OC(F)(F)F)cc31)CN(C/C=C/c1c(F)cc(F)cc1F)CC2` [Example 341, (E)-N-((2-chloropyridin-4-yl)methyl)-7-(trifluoromethoxy)-2-(3-(2,4,6-trifluorophenyl)allyl)-1,2,3,4-tetrahydro-5H-pyrido[4,3-b]indole-5-carboxamide] are 5.7 µM and 3.3 µM.
In the same order, the values of `O=C(NCc1ccnc(F)c1)n1c2c(c3cc(OC(F)(F)F)ccc31)CN(C/C=C/c1ccc(Cl)cc1)CC2` [Example 408, (E)-2-(3-(4-chlorophenyl)allyl)-N-((2-fluoropyridin-4-yl)methyl)-8-(trifluoromethoxy)-1,2,3,4-tetrahydro-5H-pyrido[4,3-b]indole-5-carboxamide] are 10 µM and 1 µM.
Consider `O=C(NCc1ccnc(Cl)c1)n1c2c(c3ccc(N4CCOCC4)cc31)CN(C/C=C/c1ccc(Cl)c(Cl)c1)CC2` [Example 508, (E)-N-((2-chloropyridin-4-yl)methyl)-2-(3-(3,4-dichlorophenyl)allyl)-7-morpholino-1,2,3,4-tetrahydro-5H-pyrido[4,3-b]indole-5-carboxamide], for which the minimal effective concentration with D. immitis microfilariae was found to be 9 µM; with Haemonchus contortus L3, 1.6 µM.
In the same order, the values of `O=C(NCc1ccnc(Cl)c1)n1c2c(c3cc(Cl)ccc31)CN(C/C=C/c1ccc(Cl)cc1)CC2` [Example 242, (E)-8-chloro-2-(3-(4-chlorophenyl)allyl)-N-((2-chloropyridin-4-yl)methyl)-1,2,3,4-tetrahydro-5H-pyrido[4,3-b]indole-5-carboxamide] are 10 µM and 0.7 µM.
In the same order, the values of `O=C(NCc1ccnc(F)c1)n1c2c(c3cc(OC(F)(F)F)ccc31)CN(C/C=C/c1cc(F)cc(F)c1)CC2` [Example 407, (E)-2-(3-(3,5-difluorophenyl)allyl)-N-((2-fluoropyridin-4-yl)methyl)-8-(trifluoromethoxy)-1,2,3,4-tetrahydro-5H-pyrido[4,3-b]indole-5-carboxamide] are 5.7 µM and 1 µM.
Regarding `O=C(NCc1ccnc(Cl)c1)n1c2c(c3c(Cl)cccc31)CN(C/C=C/c1ccc(F)cc1)CC2` [Example 218, (E)-9-chloro-N-((2-chloropyridin-4-yl)methyl)-2-(3-(4-fluorophenyl)allyl)-1,2,3,4-tetrahydro-5H-pyrido[4,3-b]indole-5-carboxamide], the figures for the minimal effective concentration in the experiment with D. immitis microfilariae and in the experiment on Haemonchus contortus L3 were 10 µM and 1 µM, respectively.
In the same order, the values of `O=C(NCc1ccnc(Cl)c1)n1c2c(c3c(C(F)(F)F)cccc31)CN(C/C=C/c1ccc(C(F)(F)F)cc1)CC2` [Example 162, (E)-N-((2-chloropyridin-4-yl)methyl)-9-(trifluoromethyl)-2-(3-(4-(trifluoromethyl)-phenyl)allyl)-1,2,3,4-tetrahydro-5H-pyrido[4,3-b]indole-5-carboxamide] are 10 µM and more than 100 µM.
With “(E)-7-chloro-2-(3-(4-cyano-3-fluorophenyl)allyl)-N-((2-fluoropyridin-4-yl)methyl)-1,2,3,4-tetrahydro-5H-pyrido[4,3-b]indole-5-carboxamide [Example 225]”, in the experiment with D. immitis microfilariae (decrease in microfilariae motility by subjective visual assessment, observed at 72 hours), the “DiMF minimally effective dose (MEC)” value came out at 3.3 µM. For the same molecule, the “HcL3 Minimal Effective Concentration (MEC)” value with Haemonchus contortus L3 was determined as 1.8 µM.
Regarding `O=C(NCc1ccnc(Cl)c1)n1c2c(c3c(OC(F)(F)F)cccc31)CN(C/C=C/c1ccc(F)cc1)CC2` [Example 357, (E)-N-((2-chloropyridin-4-yl)methyl)-2-(3-(4-fluorophenyl)allyl)-9-(trifluoromethoxy)-1,2,3,4-tetrahydro-5H-pyrido[4,3-b]indole-5-carboxamide], the minimal effective concentration in the experiment on D. immitis microfilariae stood at 3.3 µM; with Haemonchus contortus L3 it was 10 µM.
